Reference: patent US8609681B2, “Spirocyclic nitriles as protease inhibitors” (Sanofi, priority 2006, dated 2013)

Columns and labels:
Type in all cases: biochemical
Conditions in all cases: Ki from IC50 by Cheng-Prusoff equation
[1] = target: catalytic domain of human Cathepsin B (Homo sapiens (Human), UniProt P07858); assay: Enzymatic activity of the catalytic domain of human Cathepsin B (fluorogenic substrate Z-Arg-Arg-AMC)
Protocol: (§1) The enzyme is activated as follows:
25 μg of enzyme are diluted with acetate buffer to a concentration of 12.5 μg/ml. 1 part by volume of enzyme is admixed with 20 parts by volume of cysteine solution and diluted with the acetate/Hepes buffer to a concentration of 0.11 μg/ml and incubated at 37° C. for 5 minutes.
(§2) To measure the enzyme activity, 10 μl of enzyme solution are incubated with 10 μl of a 3% (v/v) aqueous dimethyl sulfoxide solution (reaction 1) for 10 minutes. To measure the enzyme inhibitor activity, 10 μl of enzyme solution are incubated with 10 μl of a 3% (v/v) aqueous dimethyl sulfoxide solution which contains the enzyme inhibitor (reaction 2).
(§3) Both in reaction 1 and in reaction 2, after addition of 10 μl of a 3% (v/v) aqueous dimethyl sulfoxide solution which contains 0.3 mmol/l of the substrate, the enzyme reaction is monitored by fluorescence spectroscopy (360 nm (excitation)/465 nm (emission)).
(§4) The enzyme activity is shown as fluorescence increase/minute.
The inhibitor action is calculated as the percentage inhibition by the following formula: inhibition=100−[(fluorescence increase/minute in reaction 2)/(fluorescence increase/minute in reaction 1)×100].
(§5) The IC50, which is the inhibitor concentration required for a 50% inhibition in the enzyme activity, is determined graphically by plotting the percentage inhibitions at different inhibitor concentrations.
The acetate buffer contains 0.1 mol/l of sodium acetate, 0.1 mol/l of sodium chloride and 0.001% Pluronic (Sigma, Deisenhofen, Germany) pH 4.5.
(§6) The cysteine solution contains 0.3 mol/l of cysteine in water. The acetate/Hepes buffer contains 0.15 mol/l of sodium acetate, 0.15 mol/l of Hepes, 0.3 mol/l of sodium chloride and 0.001% Pluronic (Sigma, Deisenhofen, Germany) pH 6.5.
The enzyme solution contains 0.11 μg/ml of the enzyme domain.
The substrate solution contains 0.3 mmol/l of the fluorogenic substrate […] (Bachem, Heidelberg, Germany).
(§7) Corresponding Ki values are obtained by applying the Cheng-Prusoff equation: Ki=Ki,app/(1+[S]/KM); where Ki,app=IC50
(§8) (Ki,app is the concentration of the competing substance which leads to 50% inhibition of the enzymatic activity at a substrate concentration [S])

[2] = target: catalytic domain of human Cathepsin K (Homo sapiens (Human), UniProt P43235); assay: Enzymatic activity of the catalytic domain of human Cathepsin K (fluorogenic substrate Boc-Ala-Gly-Pro-Arg-AMC)
Protocol: as §1
1 part by volume of enzyme is admixed with 4 parts by volume of cysteine solution and diluted with the acetate/Hepes buffer to a concentration of 0.22 μg/ml.
as §2, §3, §4
(§9) The inhibitor action is calculated as the percentage inhibition by the following formula: % inhibition=100−[(fluorescence increase/minute in reaction 2)/(fluorescence increase/minute in reaction 1)×100].
as §5, §6
The enzyme solution contains 0.22 μg/ml of the enzyme domain.
The substrate solution contains 0.3 mmol/l of the fluorogenic substrate Boc-Ala-Gly-Pro-Arg-AMC (Bachem, Heidelberg, Germany).
as §7, §8

[3] = target: catalytic domain of human Cathepsin S (Homo sapiens (Human), UniProt P25774); assay: Enzymatic activity of the catalytic domain of human Cathepsin S (fluorogenic substrate Z-Val-Val-Arg-AMC)
Protocol: as §1
5 parts by volume of enzyme are incubated with 20 parts by volume of acetate buffer and 50 parts by volume of cysteine solution at 37° C. for 5 minutes. After the activation of the enzyme, it is diluted with the Tris/HCl buffer to a concentration of 0.65 μg/ml. To measure the enzyme activity, 10 μl of enzyme solution are incubated with 10 μl of a 3% (v/v) aqueous dimethyl sulfoxide solution (reaction 1) for 10 minutes. To measure the enzyme inhibitor activity, 10 μl of enzyme solution are incubated with 10 μl of a 3% (v/v) aqueous dimethyl sulfoxide solution which contains the enzyme inhibitor (reaction 2). Both in reaction 1 and in reaction 2, after addition of 10 μl of a 1.5% (v/v) aqueous dimethyl sulfoxide solution which contains 0.15 mmol/l of the substrate, the enzyme reaction is monitored by fluorescence spectroscopy (360 nm (excitation)/465 nm (emission)).
as §4, §9, §5
The acetate buffer contains 0.05 mol/l of sodium acetate, 0.1 mol/l of sodium chloride and 0.001% Pluronic (Sigma, Deisenhofen, Germany) pH 5.5.
The cysteine solution contains 0.3 mol/l of cysteine in water. The Tris/HCl buffer contains 0.1 mol/l of Tris/HCl, 0.04 mol/l of EDTA and 0.001% Pluronic pH=7.5. The enzyme solution contains 0.65 μg/ml of the enzyme domain.
The substrate solution contains 0.15 mmol/l of the fluorogenic substrate Z-Val-Val-Arg-AMC (Bachem, Heidelberg, Germany).
as §7, §8

catalytic domain of human Cathepsin K, sequence (P43235 115-329): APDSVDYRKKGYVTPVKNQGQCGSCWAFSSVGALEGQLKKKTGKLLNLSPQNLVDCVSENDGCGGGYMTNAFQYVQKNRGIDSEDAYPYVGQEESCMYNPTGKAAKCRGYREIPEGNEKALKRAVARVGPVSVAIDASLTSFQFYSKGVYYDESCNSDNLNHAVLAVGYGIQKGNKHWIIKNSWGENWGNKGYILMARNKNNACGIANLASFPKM
catalytic domain of human Cathepsin S, sequence (P25774 115-331): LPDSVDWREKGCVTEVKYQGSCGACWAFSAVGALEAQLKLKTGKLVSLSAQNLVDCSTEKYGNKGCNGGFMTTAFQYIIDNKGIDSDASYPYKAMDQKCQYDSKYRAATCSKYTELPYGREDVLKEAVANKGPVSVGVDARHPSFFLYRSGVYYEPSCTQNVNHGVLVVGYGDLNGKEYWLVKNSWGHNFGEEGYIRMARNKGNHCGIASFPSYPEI

CC(F)(F)C[C@H](NC(=O)N1CCC2(CCCCC2)CC1)C(=O)NC1(C#N)CC1 [Example 9, N—[(S)-1-(1-cyanocyclopropylcarbamoyl)-3,3-difluorobutyl]-3-azaspiro[5.5]undecane-3-carboxamide]
Ki [1]: 46 nM | Ki [2]: 1.8 nM | Ki [3]: 3.2 nM

CC(C)C[C@H](NC(=O)C1CCC2(CC1)OCCO2)C(=O)NC1(C#N)CC1 [Example 35, N—[(S)-1-(1-cyanocyclopropylcarbamoyl)-3-methylbutyl]-1,4-dioxaspiro[4.5]decane-8-carboxamide]
Ki [1]: > 7100 nM | Ki [2]: 31 nM | Ki [3]: 150 nM

CC(F)(F)C[C@H](NC(=O)N1CCC2(CCCC2)CC1)C(=O)NC1(C#N)CC1 [Example 36]
Ki [1]: 44 nM | Ki [2]: 3 nM | Ki [3]: 2 nM

CC(F)(F)C[C@H](NC(=O)N1CCC2(CC1)OCCO2)C(=O)NC1(C#N)CC1 [Example 37]
Ki [1]: 560 nM | Ki [2]: 21 nM | Ki [3]: 13 nM

CC(F)(F)C[C@H](NC(=O)N1CCC2(CC1)C(=O)NCN2c1ccccc1)C(=O)NC1(C#N)CC1 [Example 42]
Ki [1]: 4500 nM | Ki [2]: 32 nM | Ki [3]: 11 nM

CC(F)(F)C[C@H](NC(=O)N1CCC2(CC1)NCC(C)(C)CO2)C(=O)NC1(C#N)CC1 [Example 45]
Ki [1]: 1200 nM | Ki [2]: 21 nM | Ki [3]: 24 nM

CC(F)(F)C[C@H](NC(=O)N1CCC2(CC1)CCN(Cc1ccccc1)C2=O)C(=O)NC1(C#N)CC1 [Example 49]
Ki [1]: 2200 nM | Ki [2]: 52 nM | Ki [3]: 16 nM

N#CC1(NC(=O)C2(NC(=O)N3CCC4(CCCC4)CC3)CCCCC2)CC1 [Example 53]
Ki [1]: 1500 nM | Ki [2]: 4.5 nM | Ki [3]: 53 nM

CC(F)(F)C[C@H](NC(=O)N1CCC2(CC1)CCN(C1CC1)CC2)C(=O)NC1(C#N)CC1 [Example 56]
Ki [1]: 210 nM | Ki [2]: 7.5 nM | Ki [3]: 7.2 nM

CC(F)(F)C[C@H](NC(=O)N1CCC2(CC1)CC2)C(=O)NC1(C#N)CC1 [Example 63, N—[(S)-1-(1-cyanocyclopropylcarbamoyl)-3,3-difluorobutyl]-6-azaspiro[2.5]octane-6-carboxamide]
Ki [1]: 260 nM | Ki [2]: 22 nM | Ki [3]: 5 nM

N#CC1(NC(=O)[C@H](CC(F)(F)Cc2ccccc2)NC(=O)N2CCC3(CC2)CC3)CC1 [Example 70, N—[(S)-1-(1-cyanocyclopropylcarbamoyl)-3,3-difluoro-4-phenylbutyl]-6-azaspiro[2.5]octane-6-carboxamide]
Ki [1]: 110 nM | Ki [2]: 910 nM | Ki [3]: 0.3 nM

CC(F)(F)C[C@H](NS(=O)(=O)N1CCC2(CCCC2)CC1)C(=O)NC1(C#N)CC1 [Example 74, N-(1-Cyanocyclopropyl)-(S)-2-(8-azaspiro[4.5]decane-8-sulfonylamino)-4,4-difluoropentamide]
Ki [1]: > 7100 nM | Ki [2]: 150 nM | Ki [3]: 16 nM

CC(F)(F)C[C@H](NC(=O)N1CCC2(CC1)CCC(C)(C)O2)C(=O)NC1(C#N)CC1 [Example 76]
Ki [1]: 930 nM | Ki [2]: 47 nM | Ki [3]: 22 nM

CC(F)(F)C[C@H](NC(=O)N1CCC2(CCCCC2)C1)C(=O)NC1(C#N)CC1 [Example 77]
Ki [1]: 220 nM | Ki [2]: 20 nM | Ki [3]: 7 nM

CC(F)(F)C[C@H](NC(=O)N1CCC2(CC1)OCc1ccccc12)C(=O)NC1(C#N)CC1 [Example 78]
Ki [1]: 530 nM | Ki [2]: 38 nM | Ki [3]: 19 nM

CC(F)(F)C[C@H](NC(=O)N1CCC2(CCCc3ccccc32)C1)C(=O)NC1(C#N)CC1 (stereo partly drawn) [Example 79]
Ki [1]: 620 nM | Ki [2]: 16 nM | Ki [3]: 9 nM

CC(F)(F)C[C@H](NC(=O)N1CCOC12CCCCC2)C(=O)NC1(C#N)CC1 [Example 80]
Ki [1]: 3900 nM | Ki [2]: 36 nM | Ki [3]: 9 nM

CC(F)(F)C[C@H](NC(=O)N1CC2(CCN(C3CC3)CC2)C1)C(=O)NC1(C#N)CC1 [Example 83]
Ki [1]: 2300 nM | Ki [2]: 28 nM | Ki [3]: 8 nM

CC(F)(F)C[C@H](NC(=O)N1CCC2(CC1)CC(=O)N(CC1CC1)C2)C(=O)NC1(C#N)CC1 [Example 88]
Ki [1]: 310 nM | Ki [2]: 15 nM | Ki [3]: 9 nM

CCCC(F)(F)C[C@H](NC(=O)N1CCC2(CC1)CCN(c1ccc(OC)cc1)C2)C(=O)NC1(C#N)CC1 [Example 91]
Ki [1]: 140 nM | Ki [2]: 43 nM | Ki [3]: 2 nM

CCCC(F)(F)C[C@H](NC(=O)N1CCC2(CC1)CCN(C1CC1)CC2)C(=O)NC1(C#N)CC1 [Example 94]
Ki [1]: 84 nM | Ki [2]: 24 nM | Ki [3]: 2 nM

N#CC1(NC(=O)[C@H](CC(F)(F)Cc2ccccc2)NC(=O)N2CCC3(CC2)CCN(C2CC2)CC3)CC1 [Example 97]
Ki [1]: 100 nM | Ki [2]: 400 nM | Ki [3]: 1 nM

CCCC(F)(F)C[C@H](NC(=O)N1CCC2(CC1)CC2)C(=O)NC1(C#N)CC1 [Example 102]
Ki [1]: 62 nM | Ki [2]: 33 nM | Ki [3]: 0.5 nM

CN1CCC(C#N)(NC(=O)[C@H](CC(C)(F)F)NC(=O)N2CCC3(CC2)CC3)CC1 [Example 103]
Ki [1]: 99 nM | Ki [2]: 84 nM | Ki [3]: 27 nM
